Laboratory results: article PMC6523162 (Metabolites, 2019)
Several values for one entry are separate records, joined by “and”; a condition that tells them apart may be missing. Equal entries are not always repeated.

What was measured:
[1] = PAMPA gut passive permeability; format: in vitro ADME; details: for -log Pe: PAMPA gut, 4 h
Method: (§1) Parallel Artificial Membrane Permeability Assay was performed to analyze both blood–brain barrier (BBB) and gut passive permeability. All materials for PAMPA were purchased from Pion, Inc (Billerica, MA, USA). Both the gut and BBB assays were performed according to the manufacturer’s instructions. Briefly, test compounds and standards were prepared at 10 mM concentrations in DMSO. For the gut assay, Prisma HT buffer was adjusted to pHs 5, 6.2, and 7.4 by adding 0.5 M NaOH. In the deepwell plate provided by Pion, 1 mL of each pH-adjusted buffer was added to separate wells. For each pH, 5 µL of the sample was added to the 1 mL of buffer then mixed thoroughly with a pipette, diluting the sample to a final concentration of 50 µM. Next, 200 µl of the diluted sample was added to the donor (bottom) plate from the Pion sandwich assay, 5 µL of GIT lipid matrix was added to the membrane on the bottom of the acceptor plate, and 200 µL of acceptor sink buffer was added in each well of the acceptor plate. The sandwich was assembled, and the plate incubated at room temperature for 4 h undisturbed. In BBB assays, compounds (10 mM) were diluted to final concentrations of 50 µM in Prisma HT Buffer (pH = 7.4). The PAMPA sandwich was created with the donor (bottom), BBB artificial membrane, and brain sink buffer as the acceptor (top). The assay was performed for 1 h at room temperature with shaking (60 µm) using the manufacturer-supplied GIT Box. After incubation, the UV profiles of the donor and acceptor plates were read on the SpectraMax plate reader connected to the PAMPA software. PAMPA software calculated the –log Pe values for each compound and standard using the UV profiles of the donor and acceptor plates.

[2] = system: nitric oxide production in LPS-stimulated BV-2 murine microglia; experiment: Nitric oxide quantification (Griess assay) in LPS-stimulated BV-2; format: cell-based; details: for Mean Diff., LPS (1 μg/mL) vs. compound, NOS production: Tukey's multiple comparisons test; for nitric oxide concentration: 10 μM compound + LPS 1 μg/mL
Method: (§2) As previously published, BV-2 cells were seeded at a density of 100,000 cells/mL in 24-well plates. […] Media were collected, aliquoted for nitric oxide and cytokine analysis.
Nitric oxide was detected in BV-2 culture media following the stimulation of LPS for 24 h from the previously described experiment by way of the Griess Assay (Promega, Madison WI), according to the manufacturer’s protocol.

[3] = system: TNF-α release from LPS-stimulated BV-2 murine microglia; experiment: TNF-α ELISA in LPS-stimulated BV-2 media; format: cell-based; details: for Mean Diff., LPS (1 μg/mL) vs. compound, TNF-α: Tukey's multiple comparisons test; for effect on TNF-α production (in words): 20 μM and 10 μM, compared to LPS-induced treatment; for reduction of TNF-α compared to LPS: LPS 1 μg/mL
Method: as §2
(§3) IL-6 and TNF-α were measured from BV-2 media using Enzyme Linked Immunosorbent Assay (ELISA) provided by Biolegend (San Diego, CA, USA).

[4] = system: IL-6 release from LPS-stimulated BV-2 murine microglia; experiment: IL-6 ELISA in LPS-stimulated BV-2 media; format: cell-based; details: for Mean Diff., LPS (1 μg/mL) vs. compound, IL-6: Tukey's multiple comparisons test; for IL-6 concentration: 10 μM compound + LPS 1 μg/mL; for reduction of IL-6 production compared to LPS: LPS 1 μg/mL
Method: as §2, §3

[5] = system: nitric oxide production in LPS-stimulated BV-2 murine microglia; experiment: Nitric oxide quantification (Griess assay) in LPS-stimulated BV-2; format: cell-based; details: 1 h pre-treatment, LPS 1 μg/mL 23 h
[6] = PAMPA BBB passive permeability; format: in vitro ADME; details: for PAMPA BBB permeability (in words): pH 7.4; for -log Pe: PAMPA BBB, pH 7.4, 50 µM, 1 h
Method: as §1

Row | Molecule | PAMPA gut permeability (in words) ([1]; pH 5.0, 6.2 and 7.4) | Mean Diff., LPS (1 μg/mL) vs. compound, NOS production ([2]; 10 μM) | Mean Diff., LPS (1 μg/mL) vs. compound, NOS production ([2]; 20 μM) | Mean Diff., LPS (1 μg/mL) vs. compound, TNF-α ([3]; 10 μM) | Mean Diff., LPS (1 μg/mL) vs. compound, TNF-α ([3]; 20 μM) | Mean Diff., LPS (1 μg/mL) vs. compound, IL-6 ([4]; 10 μM) | Mean Diff., LPS (1 μg/mL) vs. compound, IL-6 ([4]; 20 μM) | reduction of nitric oxide compared to LPS alone ([5]; 20 μM) | PAMPA BBB permeability (in words) [6] | nitric oxide concentration [2] | TNF-α concentration ([3]; 10 μM compound + LPS 1 μg/mL) | reduction of TNF-α compared to LPS ([3]; 10 μM) | IL-6 concentration [4] | reduction of IL-6 production compared to LPS ([4]; 10 μM) | reduction of nitric oxide compared to LPS alone ([5]; 10 μM) | -log Pe [6] | further results
1 | Cc1cc(=O)n(-c2ccccc2)n1C [Antipyrine, reference compound] |  |  |  |  |  |  |  |  |  |  |  |  |  |  |  |  | PAMPA gut permeability (in words) ([1]; pH 5): medium
2 | O=c1c(-c2ccc(O)cc2)coc2cc(O)ccc12 [DAI, daidzein] | most permeable at pHs 5 and 6.2 | 4.129 | 9.223 | 57.91 | 70.55 | 17.26 | 20.68 | 24% |  |  |  |  |  |  |  |  | effect on TNF-α production (in words) [3]: similar, albeit less potent, protective abilities
3 | OC[C@H](Cc1cccc(O)c1)[C@H](CO)Cc1cccc(O)c1 [ED, enterodiol] | lowest permeability of all test compounds | 4.354 |  | 2.638 |  | -24.9 |  |  | low permeability | 46.65 µM | 515.8 pg/mL | 0.5% | 690.6 pg/mL | approximately 3.74% | ~8.54% |  | 
4 | O=C1OC[C@H](Cc2cccc(O)c2)[C@H]1Cc1cccc(O)c1 [EL, enterolactone] |  | 15.34 |  | 152.8 |  | 175.8 |  |  | high permeability | 35.67 µM | 365.6 pg/mL | 29.47% | 489.9 pg/mL | ~26.41% | ~30.07% | 3.97 ± 0.14 | -log Pe ([1]; pH 5, 50 µM): 4.27 ± 0.05; -log Pe ([1]; pH 6.2, 50 µM): 4.37 ± 0.02
5 | Oc1ccc([C@H]2COc3cc(O)ccc3C2)cc1 [EQ, equol] |  | 6.216 | 8.47 | 57.03 | 72.78 | 10.39 | 19.48 | 22% | high permeability |  |  |  |  |  |  | 3.52 ± 0.20 | -log Pe ([1]; pH 5, 50 µM): 4.35 ± 0.11; -log Pe ([1]; pH 6.2, 50 µM): 4.20 ± 0.02; effect on TNF-α production (in words) [3]: similar, albeit less potent, protective abilities
6 | O=c1c(-c2ccc(O)cc2)coc2cc(O)cc(O)c12 [GEN, genistein] |  | 14.41 | 26.17 | 113.8 | 199.8 | 35.15 | 83.38 | 68% | Intermediate BBB permeability |  |  | 16.6% |  | 34.0% | 38% | 4.26 ± 0.16 | reduction of TNF-α compared to LPS ([3]; 20 μM): 29.1%; reduction of IL-6 production compared to LPS ([4]; 20 μM): 80.4%
7 | CC(C(=O)O)c1cccc(C(=O)c2ccccc2)c1 (stereo not drawn) [Ketoprofen, ketoprofen, reference compound] | variable permeability with pH change |  |  |  |  |  |  |  |  |  |  |  |  |  |  |  | 
8 | CNC(=C[N+](=O)[O-])NCCSCc1ccc(CN(C)C)o1 [Ranitidine, ranitidine, reference compound] | low |  |  |  |  |  |  |  |  |  |  |  |  |  |  |  | 
9 | COc1cc(C[C@@H](CO)[C@H](CO)Cc2ccc(O)c(OC)c2)ccc1O [SECO, secoisolariciresinol] | moderate permeability | 4.653 |  | 20.62 |  | -7.108 |  |  | low permeability | 46.35 µM | 497.8 pg/mL | 3.97% | 672.8 pg/mL | 1.05% | approximately 9.13% |  | 
10 | lipopolysaccharide [LPS, reference compound] |  |  |  |  |  |  |  |  |  |  |  |  |  |  |  |  | nitric oxide species concentration ([2]; LPS 1 μg/mL alone): 41.5 ± 5.6 µM and 51.01 µM; TNF-α concentration ([3]; LPS 1 μg/mL alone): 687.7 ± 8.0 pg/mL and 518.4 pg/mL
